Where two headings read alike, the source gives them in different places.

The values below come from US4870002A, “Method of prevention of oxidative injury to cells” (priority 1985, dated 1989).

The subject of series [1] is porcine RBCs. Description: Nonspecific binding of Lu-BSA to porcine RBCs (base-activated chemiluminescence). Format: cell-based, pig. On the procedure:
Blood was collected from Landrace-Duroc swine from a closed herd. Pigs from this herd had previously expressed episodes of porcine stress syndrome (malignant hyperthermia) following halothane anesthesia. The blood was collected into acidic citrated dextrose solution in standard blood bags. The blood was diluted 1:10 in phosphate (0.1M) buffered saline (PBS), pH 7.4, in 10 ml aliquots, centrifuged in a clinical centrifuge, and the erythrocytes were resuspended in fresh PBS. The cells were stored at 4° C. until used in the various assays. The post-collection chronological age of the RBCs used for a particular assay is noted in the results for each assay. The cells were counted in an automated cell counter (Coulter ZBI, Coulter Electronics, Inc., Hialeah, Fla. 33010). Nonspecific binding of Lu-BSA to porcine RBCs was measured following treatment with hydrogen peroxide, pyruvate, and/or 3-amino-L-tyrosine at 4°, 37°, or 45° C. The exposure times for those agents were 15 min, 30 min, or 72 hours. The reagents were removed by centrifugation. Three binding protocols were followed: (1) 0.25 ml of 1:20 RBCs (19 days post collection) were incubated with 0.25 ml of 1 mg/ml Lu-BSA in PBS, pH 6.9, for 30 min at 37° C. and washed (Table 1); (2) 0.05 ml of packed RBCs (less than 24 hours post collection) were resuspended in 0.2 ml of the Lu-BSA solution and incubated overnight at 4° C. […] The cells in all three protocols were washed once in PBS, pH 7.4, and resuspended in PBS to final dilutions of 1:20 for (1) and 1:30 for (2) and (3). Following this preparation, 100 μl of each cell suspension were added to 500 μl of PBS, pH 7.4, in a scintillation vial. The vial was placed in the photometer and the solution was activated by the addition of 100 μl 0.1N NaOH. The settings for the photometer were as previously described for the Con A-Lu-BSA.

The subject of series [2] is pig RBCs. In words: Thermal fragility / hemolysis of RBCs (410 nm absorbance of supernatant). The class given is cell-based. Particulars: for thermal hemolysis, 410 nm optical absorbance, Hot air / thermal hemolysis, 410 nm optical absorbance, Microwave exposed / 410 nm optical absorbance of 1:2 diluted supernatant, Hot air / 410 nm optical absorbance of 1:2 diluted supernatant, Microwave exposed: 43° C. (10 min); for thermal hemolysis, 410 nm optical absorbance, Hot air / thermal hemolysis, 410 nm optical absorbance, Microwave exposed: Con A-Lu-BSA labeled RBCs 11-14 days post collection; for 410 nm optical absorbance of 1:2 diluted supernatant, 4° C. / 410 nm optical absorbance of 1:2 diluted supernatant, Hot air / 410 nm optical absorbance of 1:2 diluted supernatant, Microwave exposed: RBCs 6 days post collection. Here is the method:
Blood was collected from Landrace-Duroc swine from a closed herd. Pigs from this herd had previously expressed episodes of porcine stress syndrome (malignant hyperthermia) following halothane anesthesia. The blood was collected into acidic citrated dextrose solution in standard blood bags. The blood was diluted 1:10 in phosphate (0.1M) buffered saline (PBS), pH 7.4, in 10 ml aliquots, centrifuged in a clinical centrifuge, and the erythrocytes were resuspended in fresh PBS. The cells were stored at 4° C. until used in the various assays. The post-collection chronological age of the RBCs used for a particular assay is noted in the results for each assay. The cells were counted in an automated cell counter (Coulter ZBI, Coulter Electronics, Inc., Hialeah, Fla. 33010).
Red blood cells were heated in 1 or 1.5 ml aliquots of PBS pH 7.4 with or without additional reagents in cellulose nitrate or polypropylene centrifuge tubes. Two concentrations of cells were used as indicated in the results. Heating was accomplished by three methods: microwave radiation, hot air, or water bath heating. The microwave device was a circularly polarized waveguide powered by a 1-kw S-band (microwave) amplifier (Model 10704,MCL, Inc., La Grange, Ill.). The heating of the sample at a specific absorption rate (SAR) of 91±4 W/kg (continuous wave (CW), 2450MHz) was offset by an air-cooling system that maintained a constant temperature. This system has been previously described in greater detail in Kiel, J. L. and D. N. Erwin, "Microwave and thermal interactions with oxidative hemolysis", 16 Physiol. Chem. Phys. Med. NMR, 317-323 (1984), which reference is hereby incorporated in its entirety by this specific reference thereto. […] The temperature was held within ±0.2° C. by this system. In the absence of microwave radiation, the temperature was held constant by hot air alone. The microwave/hot air system was brought to 37° C. for 15 min. prior to raising the temperature to 43° C. by microwaves or hot hot air. The water bath heating held the temperature within ±0.5° C. Heating times were 10, 15, or 30 min. The temperatures examined were 37°, 43°, 45°, or 48°.
Hemoglobin released into the supernatants of the heated cells were determined by the method described in the above-incorporated reference of Kiel and Erwin (1984). In brief, the supernatants were collected following centrifugation in a clinical centrifuge, diluted 1:2 in PBS, pH 7.4, and the optical absorbances at 410 nm were determined in a dual beam spectrophotometer. Pyruvate, lactate, inosine, hydrogen peroxide, mimosine, and/or 3-amino-L-tyrosine were added to the samples as indicated in Tables 1-3 and 9-12. All reagents were diluted in PBS and the final volumes of the samples were constant.

The subject of series [3] is Con A-Lu-BSA labeled pig RBCs. Description: Chemiluminescence of Con A-Lu-BSA labeled pig RBCs with exogenous hydrogen peroxide. Format: cell-based. Particulars: 1.43 mM; for activity at 1430 µM: Sus scrofa, Erythrocyte, read-out: Percent control. On the procedure:
The luminol-bovine serum albumin (Lu-BSA) complex was made by mixing 2 mg luminol (5-amino-2, 3-dihydrophthalazine-1,4-dione), 0.2 ml of 2 mg BSA/ml PBS (pH 6.9), and 1.6 ml of PBS, pH 6.9. The preparation was then passed through a 0.22 μm nitrocellulose filter to remove insoluble luminol. Next, 0.2 ml of 2 mg Con A/ml of PBS, pH 6.9, was added to the filtrate. After gentle mixing, 10 μl of 25% glutaraldehyde were added. The solution was incubated in the refrigerator for 1 hour. To stop the conjugation, 100 mg of glycine was added to the solution. The solution was then pressed through a 48 ml column of dextran gel filtration beads equilibrated with PBS, pH 6.9. The gel exclusion size was greater than 5000 for globular molecules. The fractions were collected and tested for luminescent labeling activity.
One ml of supernatant of each 10 ml aliquot of 1:20 diluted RBCs was replaced with 1 ml of Con A-Lu-BSA solution as previously described. The preparation was incubated for 15 min. at 37° C. in a water-jacketedcell culture incubator. The cells were then pelleted in a clinical centrifuge, resuspended in PBS, and washed in the same manner two additional times. The washed cells were maintained at 4° C. until used the same day of preparation.
Following exposure to chemical or physical stressors, 100 μl of the RBC suspension was added to 500 μl of PBS, pH 7.4, containing 0.3% hydrogen peroxide, in a scintillation vial. To activate the sample, 100 μl of 0.1N NaOH were added to the vial in place in an ATP photometer (Integrating ATP Photometer Model 3000, Science Applications, San Diego, California 92121) The photometer was set to a dark count of 1 count/30 second at a sensitivity of 600 at room temperature (approximately 23° C.). All counts followed a 5 second delay period to allow for stabilization of the photomultiplier. The counts are reported as counts/30 sec.
All essays were run at room temperature. The post-collection age of those cells was 11-18 days and the cells were used the day of labeling. […] Pyruvate (1.43 mM), an autoxidizable substrate, doubled the CL of labeled cells.

In series [4] the test system is Con A-Lu-BSA labeled pig RBCs. The description is as above. Format: cell-based. The following applies: Sus scrofa, Erythrocyte, 1.43 mM, no cells; read-out: Percent control.
Series [5] relates to 20-methylcholanthrene induced tumors. The following applies: cited from earlier work.
The conditions of series [6]: in vivo; cited from earlier work.
[7] abbreviates: labeled RBCs 11-18 days post collection, room temperature.

For the compound `OO` [Hydrogen peroxide, reference compound], the “CL (30 s)” value in series [1] (Lu-BSA binding, pretreatment 44 mM, 37° C., 15 min, RBCs 19 days post collection) amounted to 558 ± 157 counts/30 s; in series [1] (hydrogen peroxide 11.7 mM, 37° C., 30 min, RBCs less than 24 hours post collection) it was 1346 ± 386 counts/30 s. In series [1] (Sus scrofa, 0.25 h, 44 mM, 15 min, 37° C. (hot air), 1.4×10^9 RBCs/ml, read-out: increase in bound Lu-BSA compared to cells maintained in PBS), the activation at 44000 µM worked out at 721%. Besides, in series [1] (Sus scrofa, 0.5 h, hydrogen peroxide 11.7 mM, 37° C., 30 min, vs 4° C. control, read-out: Percent difference from control), the activation at 11700 µM stood at 254%.

For `OC[C@H]1O[C@@H](n2cnc3c(O)ncnc32)[C@H](O)[C@@H]1O` [Inosine], in series [2] (10 mM), the “benefit of storing RBCs in reagent in respect to thermal fragility, in words” value was “no significant benefit”; the “thermal hemolysis, 410 nm optical absorbance, Hot air” value (from here on “thermal hemolysis … Hot air”) is listed as 0.597 ± 0.080; the “thermal hemolysis, 410 nm optical absorbance, Microwave exposed” value (“thermal hemolysis … Microwave exposed” below) amounted to 0.578 ± 0.045. Further, in series [3], the “effect on CL of labeled cells, in words” value is given as “small but significant increase” and the activity at 1430 µM was 115%. In addition, in series [3] (setting [7]), the “CL (30 sec)” value is 34,972 ± 2,732 counts/30 sec.

As for `CC(O)C(=O)O` (stereo not drawn) [Lactate], in series [2] (10 mM, 43° C., RBCs 6 days post-collection), the “change in hemolysis, in words” value is recorded as “insignificant increases”. For the same compound, in series [2] (10 mM), the “410 nm optical absorbance of 1:2 diluted supernatant, 4° C.” value is 0.362; the “thermal hemolysis … Hot air” value was 0.667 ± 0.04; the “thermal hemolysis … Microwave exposed” value was determined as 0.643 ± 0.02; the “410 nm optical absorbance of 1:2 diluted supernatant, Hot air” value was determined as 0.440 ± 0.078. For the same compound, the “410 nm optical absorbance of 1:2 diluted supernatant, Microwave exposed” value in series [2] (10 mM) is 0.424 ± 0.014. In addition, in series [3], the “effect on CL of labeled cells, in words” value is listed as “insignificant increases” and the activity at 1430 µM stood at 102%. In series [3] (setting [7]), the “CL (30 sec)” value is reported as 30,930 ± 3,399 counts/30 sec.

Consider `CC(=O)C(=O)O` [Pyruvate], for which the “CL (30 s)” value in series [1] (1.33 mM, 45° C., 30 min) is 1203 ± 266 counts/30 s. The “CL (counts/30 s)” value in series [1] (1.33 mM, 30 min at 37° C., RBCs 72 hours post collection) worked out at 2348 ± 646 counts/30 s. Moreover, in series [1] (Sus scrofa, 1.33 mM during exposure to 45° C., read-out: increase in Lu-BSA binding over the 45° C. exposure alone), the activation at 1330 µM turned out to be 101%. In addition, the activation at 1330 µM in series [1] (Sus scrofa, 0.5 h, 1.33 mM, 45° C., 30 min, vs 4° C. control, read-out: Percent difference from control) was determined as 216%. For the same compound, in series [1] (Sus scrofa, 0.5 h, 1.33 mM, 30 min at 37° C., read-out: Percent difference from control), the activation at 1330 µM came out at 166%. In addition, the fold induction at 1330 µM in series [1] (Sus scrofa, 0.5 h, 1.33 mM, 30 min at 37° C., read-out: increase of Lu-BSA binding) was determined as 2.7. In series [2] (10 mM), the “410 nm optical absorbance of 1:2 diluted supernatant, 4° C.” value turned out to be 0.363; the “thermal hemolysis … Hot air” value came to 0.646 ± 0.02; the “thermal hemolysis … Microwave exposed” value amounted to 0.646 ± 0.07; the “410 nm optical absorbance of 1:2 diluted supernatant, Hot air” value turned out to be 0.427 ± 0.015. Besides, in series [2] (10 mM), the “410 nm optical absorbance of 1:2 diluted supernatant, Microwave exposed” value is 0.374 ± 0.055. The compound further came in with a spontaneous hemolysis reading in series [2] (pyruvate 1.33 mM, 37° C., RBCs 72 hours post collection) of 0.362±0.016. The “CL (30 sec)” value in series [3] (no cells) came out at 420 counts/30 sec. Also, in series [3] (setting [7]), the “CL (30 sec)” value is recorded as 60,732 ± 3,258 counts/30 sec. Further, the activity at 1430 µM in series [3] stood at 200%. Besides, the activity at 1430 µM in series [4] was determined as 1.4%.

Turning to `S=P(N1CC1)(N1CC1)N1CC1` [thio-TEPA, reference compound], the “effect on tumor growth, in words” value in series [5] (agent alone) is listed as “Neither myeloperoxidase nor thio-TEPA alone were effective”.

Regarding myeloperoxidase, the “effect on tumor growth, in words” value in series [5] (agent alone) is reported as “Neither myeloperoxidase nor thio-TEPA alone were effective”; in series [5] (myeloperoxidase injected in combination with thio-TEPA), “significant reduction in tumor growth”. Also, in series [6], the biological half-life entry was “about 24 hours”.
